Values quoted from earlier work as cited in patent publication US20120237563A1, “CONTROLLED-RELEASE FORMULATIONS OF […] AND USES THEREOF” (UNIVERSITY OF FLORIDA RESEARCH […]., priority 2009, published 2012).

Details: clinical studies

COc1ccc(/C=C2\CCCN=C2c2cccnc2)c(OC)c1 [DMXBA, 3-(2,4-dimethoxybenzylidene)-anabaseine]
Safety of large oral doses: without adverse effects | Half-life (oral): two
